# Patent US20050209157A1, “Short bioactive peptides and methods for their use” (priority 2001, published 2005)
# Like-named read-outs stand apart in the source and are kept apart here. No end group written: not given here.
# Key:
# [1] = tested on: Pseudomonas aeruginosa ATCC 9027; assay: Antimicrobial assay I, MIC by OD measurement; assay type: cell-based; conditions: 37° C. for 24 hours, absorbance 620 nm
# [2] = tested on: Staphylococcus aureus ATCC 6538; assay: Antimicrobial assay I, MIC by OD measurement; assay type: cell-based; conditions: 37° C. for 24 hours, absorbance 620 nm
# [3] = tested on: yeast (Saccharomyces cerevisiae); assay: Antimicrobial assay I, yeast assay in RPMI 1640; assay type: cell-based; conditions: RPMI 1640 media
# [4] = tested on: S. aureus (MRSA); assay type: cell-based, Staphylococcus aureus; conditions: mean of three; 16 to 20 hours at 35° C.
# [5] = tested on: S. epidermidis C621; assay type: cell-based, Staphylococcus epidermidis; conditions: mean of three; 16 to 20 hours at 35° C.
# [6] = tested on: S. pyogenes M76; assay: Antimicrobial assays II, NCCLS broth microdilution MIC; assay type: cell-based, Streptococcus pyogenes; conditions: mean of three; 16 to 20 hours at 35° C.
# [7] = tested on: S. pyogenes ATCC19615; assay: as above; assay type: cell-based, Streptococcus pyogenes; conditions: mean of three, in µg/mL
# [8] = tested on: S. pneumoniae C718; assay: as above; assay type: cell-based, Streptococcus pneumoniae; conditions: mean of three
# [9] = tested on: S. pneumoniae C719; assay: as above; assay type: cell-based, Streptococcus pneumoniae; conditions: mean of three, in µg/mL
# [10] = tested on: P. acne ATCC 6919; assay: as above; assay type: cell-based, Propionibacterium acnes; conditions: mean of three, in µg/mL
# [11] = tested on: BMKC; assay: Anti-cancer assay, MTT, LD50; assay type: cell-based; conditions: BMKC cloned melanoma line, 24 hours with peptide
# Text: (§1) Numbers are LD50 values (μg/mL).
# [12] = tested on: H1299; assay: Anti-cancer assay, MTT, LD50; assay type: cell-based; conditions: 24 hours with peptide, lung large cell carcinoma
# Text: as §1
# [13] = tested on: HeLaS3; assay: Anti-cancer assay, MTT, LD50; assay type: cell-based; conditions: 24 hours with peptide, cervical carcinoma
# Text: as §1
# [14] = tested on: MCF7; assay: Anti-cancer assay, MTT, LD50; assay type: cell-based; conditions: MCF7 breast adenocarcinoma line, MTT, 24 hours with peptide
# Text: as §1
# [15] = tested on: PC3; assay: Anti-cancer assay, MTT, LD50; assay type: cell-based; conditions: 24 hours with peptide, prostate adenocarcinoma
# Text: as §1
# [16] = tested on: SW480; assay: Anti-cancer assay, MTT, LD50; assay type: cell-based; conditions: SW480 colon adenocarcinoma line, 24 hours with peptide
# Text: as §1
# [17] = in vitro; assay type: cell-based, human; conditions: human, human red blood cells, pH 7, hemolytic assay, concentration at 50% hemolysis, 1 hour at 37° C.; read-out: LD50
# [18] = tested on: P. aeruginosa H374; assay type: cell-based, Pseudomonas aeruginosa; conditions: for MIC Cm-comb.: MIC of chloramphenicol with peptide at ¼ MIC; for MIC Nal-comb.: MIC of nalidixic acid with peptide at ¼ MIC; for FIC Index: 0.5 or less = synergy
# In short: (§2)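 FIC index, computed as 0.25 plus the ratio of combination to single-agent antibiotic MIC, defines synergy when 0.5 or below. Peptide fixed at one quarter MIC while chloramphenicol or nalidixic acid was serially diluted two-fold; antibiotic-alone MICs served as baselines.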
# [19] = tested on: P. aeruginosa H774; assay type: cell-based, Pseudomonas aeruginosa; conditions: P. aeruginosa H744; nalidixic acid + peptide at ¼ MIC; 0.5 or less = synergy
# In short: as §2
# [20] = tested on: P. aeruginosa; assay type: cell-based, Pseudomonas aeruginosa; conditions: P. aeruginosa H744; MIC of nalidixic acid with peptide at ¼ MIC
# In short: as §2
# [21] = tested on: WI38; conditions: MTT, 24 hours with peptide; normal fibroblast line
# [22] = in vitro; conditions: human, WI38 normal lung fibroblast cells, LD50 WI38, WI38 normal lung fibroblast line, MTT, 24 hours with peptide
# [23] = chloramphenicol + peptide at ¼ MIC
# [24] = nalidixic acid + peptide at ¼ MIC, FIC=0.25+MIC comb/MIC alone
Substance,paerug9027 (MIC) [1],staph6538 (MIC) [2],yeast (MIC or MFC) [3],S. aureus (MRSA) MIC [4],S. epidermidis C621 MIC [5],S. pyogenes M76 MIC [6],S. pyogenes MIC [7],S. pneumoniae MIC [8],S. pneumoniae MIC [9],P. acne MIC [10],LD50 BMKC [11],H1299 LD50 [12],HeLaS3 LD50 [13],LD50 MCF7 [14],PC3 LD50 [15],LD50 SW480 [16],HC50 at 1 h [17],MIC Cm-comb. [18],MIC Nal-comb. [18],"FIC Index [18, 23]",further results
FAKLLAKALKKLL-NH2 [P55],5 µg/mL,5 µg/mL,25 µg/mL,4 µg/mL,2 µg/mL,4 µg/mL,2,8 µg/mL,4,4,16 µg/mL,7 µg/mL,15 µg/mL,16 µg/mL,47 µg/mL,14 µg/mL,20 µg/mL,16 µg/mL,5000 µg/mL,1.25,"FIC Index [18, 24]: 1.25; FIC Index [19]: 1.25; MIC Nal-comb. [20]: 624 µg/mL; WI38 LD50 [21]: 32 µg/mL; CC50 at 24 h [22]: 32 µg/mL"
FAKLLAKLAKKLL-NH2 [P43],100 µg/mL,5 µg/mL,25 µg/mL,4 µg/mL,2 µg/mL,2 µg/mL,2,8 µg/mL,4,2,7 µg/mL,6 µg/mL,15 µg/mL,9 µg/mL,12 µg/mL,9 µg/mL,20 µg/mL,16 µg/mL,5000 µg/mL,1.25,"FIC Index [18, 24]: 1.25; FIC Index [19]: 1.25; MIC Nal-comb. [20]: 624 µg/mL; WI38 LD50 [21]: 5 µg/mL; CC50 at 24 h [22]: 5 µg/mL"
FAKLLAKLAKKVL-NH2 [P124],100 µg/mL,5 µg/mL,100 µg/mL,8 µg/mL,4 µg/mL,16 µg/mL,16,> 128 µg/mL,64,8,10 µg/mL,30 µg/mL,14 µg/mL,18 µg/mL,10 µg/mL,9 µg/mL,55 µg/mL,16 µg/mL,2500 µg/mL,1.25,"FIC Index [18, 24]: 0.75; FIC Index [19]: 1.25; MIC Nal-comb. [20]: 624 µg/mL; WI38 LD50 [21]: 21 µg/mL; CC50 at 24 h [22]: 21 µg/mL"
FALAAKALKKLAKKLKKLAKKAL-NH2 [P23],50 µg/mL,5 µg/mL,100 µg/mL,32 µg/mL,16 µg/mL,16 µg/mL,8,16 µg/mL,16,4,27 µg/mL,64 µg/mL,82 µg/mL,62 µg/mL,41 µg/mL,5 µg/mL,300 µg/mL,8 µg/mL,2500 µg/mL,0.75,"FIC Index [18, 24]: 0.75; FIC Index [19]: 1.25; MIC Nal-comb. [20]: 624 µg/mL; WI38 LD50 [21]: 34 µg/mL; CC50 at 24 h [22]: 34 µg/mL"
